The source of these data is patent US20260193170A1 (University of Copenhagen, priority 2022, published 2026).

The target of the experiment is T1, human Keap1 Kelch domain (Homo sapiens, UniProt Q14145).
T1 construct: human Keap1 Kelch domain (residue 321-609, UniProt Q14145); made in house; host or cells: Escherichia coli BL21 (DE3) pLysS, pRSET A vector
As to the kind of experiment: Fluorescence polarization (FP) competition assay, Cy5-Nrf2 peptide probe. The class given is binding. The following applies: heterologous competition FP; Keap1 Kelch 14 nM, Cy5-Nrf2 probe 3 nM, 4% DMSO; mean ± SEM. Here is the method:
The binding affinities between the fluorescent peptide probe Cy5-Nrf2 (SEQ: Cy5-[…]-NH2) and the human Keap1 Kelch domain were determined as Kd values by saturation binding experiments, where increasing concentrations of Keap1 (0-300 nM) were added to a fixed concentration of peptide probe (3 nM). The assay was performed in a 1× HBSTET buffer (10 mM HEPES, 150 mM NaCl, 0.005% Tween20, 3 mM ethylenediaminetetraacetic acid (EDTA), 1 mM TCEP, pH=7.4) using black flat-bottom 384-well plates (Corning Life Sciences, NY), a volume of 30 μL/well, and a final DMSO concentration of 4% or 8%. The assay plate was spun down to ascertain proper mixing and removal of potential air bubbles and incubated for 10-15 min at room temperature before measuring the FP levels on a Safire2 plate reader (Tecan, Mannedorf, Switzerland). The g-factor was adjusted at each experiment so that a series of three blank wells containing probe but no Keap1 Kelch defined the baseline FP value. The Cy5-Nrf2 probe was measured at excitation/emission values of 635:670 nm. The FP values were fitted to the one-site specific binding equation: Y=Bmax×X/(Kd+X), with Bmax being the maximal FP value, X the Keap1 Kelch concentration, and Y the variable FP values. The Kd values were derived from the resulting binding saturation curve as being equal to the Keap1 Kelch concentration, where the curve is half-saturated.
The affinities between nonfluorescent small molecule Keap1 inhibitors and Keap1 Kelch were determined as Ki values in a heterologous competition FP binding assay. This was done by adding increasing concentration of test compound (2-fold serial dilutions, 12 concentrations tested per inhibition curve as duplicates) to a fixed concentration of Keap1 Kelch (14 nM) and the Cy5-Nrf2 peptide probe (3 nM) in the same HBSTET buffer and conditions as described above (final DMSO concentrations were 4%). FP values were fitted to the equation Y=Bottom+(Top−Bottom)/[1+(10^HillSlope×(log IC50−X))], where X is the logarithmic value of compound concentration. Hereby, the IC50 value was obtained, which together with the […] value and probe and Keap1 Kelch concentrations was used to calculate the theoretical competitive inhibition constant, the Ki value. 43 Ki values are shown as mean±SEM (standard error of mean) if based on two or more individual measurements.
On the technique in general: In fluorescence polarisation assays a small probe gives low polarisation when free and higher when bound to something large.

T1 sequence (Q14145 321-609): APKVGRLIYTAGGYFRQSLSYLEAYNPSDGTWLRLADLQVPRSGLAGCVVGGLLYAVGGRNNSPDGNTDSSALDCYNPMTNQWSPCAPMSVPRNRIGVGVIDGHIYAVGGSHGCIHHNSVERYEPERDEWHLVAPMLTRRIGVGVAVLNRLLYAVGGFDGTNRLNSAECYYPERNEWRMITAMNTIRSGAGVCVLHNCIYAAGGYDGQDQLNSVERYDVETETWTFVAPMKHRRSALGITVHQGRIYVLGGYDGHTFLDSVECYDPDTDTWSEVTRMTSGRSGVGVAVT

A word on the Ki: it is a measure of affinity in units of concentration, obtained from inhibition or displacement. For the compound `O=C(O)CC(c1ccc(Cl)cc1)c1ccc2ccc(OCC(=O)NC3CCCCCC3)cc2c1` (centres unmarked) [2c, 3-(4-Chlorophenyl)-3-(7-(2-(cycloheptylamino)-2-oxoethoxy)naphthalen-2-yl)propanoic acid], the Ki is 0.294 ± 0.03 µM.
On to `O=C(O)CC(c1ccc2c(c1)OC(F)(F)O2)c1ccc2ccc(OCC(=O)NC3C=CCCC3)cc2c1` (centres unmarked) [4f, 3-(7-(2-(Cyclohex-2-en-1-ylamino)-2-oxoethoxy)naphthalen-2-yl)-3-(2,2-difluorobenzo[d][1,3]dioxol-5-yl)propanoic acid], for which the Ki came out at 0.03 ± 0.002 µM.
Turning to `Cc1cc2c(cc1C(CC(=O)O)c1ccc3ccc(OCC(=O)NC4CCCCCC4)cc3c1)OCO2` (centres unmarked) [2n, 3-(7-(2-(cycloheptylamino)-2-oxoethoxy)naphthalen-2-yl)-3-(6-methylbenzo[d][1,3]dioxol-5-yl)propanoic acid], the Ki stood at 0.008 ± 0.002 µM.
For the compound `COc1cc(C(CC(=O)O)c2ccc3ccc(OCC(=O)NC4CCCCCC4)cc3c2)cc2nnn(C)c12` (centres unmarked) [2o, 3-(7-(2-(cycloheptylamino)-2-oxoethoxy)naphthalen-2-yl)-3-(7-methoxy-1-methyl-1H-benzo[d][1,2,3]triazol-5-yl)propanoic acid], the inhibitory constant (Ki) is 0.0035 ± 0.0006 µM.
With `COc1ccc(C(CC(=O)O)c2ccc3ccc(OCC(=O)NC4CCCCC4)cc3c2)cc1` (centres unmarked) [3a, 3-(7-(2-(cyclohexylamino)-2-oxoethoxy)naphthalen-2-yl)-3-(4-methoxyphenyl)propanoic acid], the Ki is 0.07 ± 0.003 µM.
Consider `CC(C(=O)O)C(c1ccc2c(c1)OCO2)c1ccc2ccc(OCC(=O)NC3CCCCCC3)cc2c1` (centres unmarked) [7c, 3-(benzo[d][1,3]dioxol-5-yl)-3-(7-(2-(cycloheptylamino)-2-oxoethoxy)naphthalen-2-yl)-2-methylpropanoic acid], for which the inhibition constant (Ki) was determined as 0.015 ± 0.001 µM.
As to `O=C(O)CC(c1ccc2c(c1)CCO2)c1ccc2ccc(OCC(=O)NC3CCCCC3)cc2c1` (centres unmarked) [3i, 3-(7-(2-(cyclohexylamino)-2-oxoethoxy)naphthalen-2-yl)-3-(2,3-dihydrobenzofuran-5-yl)propanoic acid], the Ki came to 0.082 ± 0.008 µM.
For `O=C(O)CCc1ccc2ccc(OCC(=O)NN3CCOCC3)cc2c1` [1c, 3-(7-(2-Morpholinoamino-2-oxoethoxy)naphthalen-2-yl)propanoic acid], the Ki is 268 ± 29 µM.
As to `CC1(NC(=O)COc2ccc3ccc(C(CC(=O)O)c4ccc5c(c4)OCO5)cc3c2)CCCCC1` (centres unmarked) [6f, 3-(benzo[d][1,3]dioxol-5-yl)-3-(7-(2-((1-methylcyclohexyl)amino)-2-oxoethoxy)naphthalen-2-yl)propanoic acid], the inhibitory constant (Ki) turned out to be 0.477 ± 0.07 µM.
Then `O=C(O)CCc1ccc2ccc(OCC(=O)Nc3ccccc3)cc2c1` [1h, 3-(7-(2-oxo-2-(phenylamino)ethoxy)naphthalen-2-yl)propanoic acid], with 7.8 ± 0.1 µM; and `O=C(O)CCc1ccc2ccc(OCC(=O)NC3CCCCC3)cc2c1` [1a, 3-(7-(2-(Cyclohexylamino)-2-oxoethoxy)naphthalen-2-yl)propanoic acid], with 14 ± 0.8 µM.
Consider `O=C(O)CC(c1ccc2c(c1)OCO2)c1ccc2ncc(OCC(=O)NC3CCCCCC3)cc2c1` (centres unmarked) [9a, 3-(benzo[d][1,3]dioxol-5-yl)-3-(3-(2-(cycloheptylamino)-2-oxoethoxy)quinolin-6-yl)propanoic acid], for which the Ki came out at 0.522 ± 0.067 µM.
For the compound `Cc1cc2c(cc1C(CC(=O)O)c1ccc3ccc(OCC(=O)NC4C=CCCC4)cc3c1)OC(F)(F)O2` (centres unmarked) [4l, 3-(7-(2-(cyclohex-2-en-1-ylamino)-2-oxoethoxy)naphthalen-2-yl)-3-(2,2-difluoro-6-methylbenzo[d][1,3]dioxol-5-yl)propanoic acid], the inhibition constant (Ki) was 0.016 ± 0.005 µM.
As for `CCn1nnc2c(C)c(C(CC(=O)O)c3ccc4ccc(OCC(=O)NC5CCCCCC5)cc4c3)ccc21` (centres unmarked) [2p, 3-(7-(2-(cycloheptylamino)-2-oxoethoxy)naphthalen-2-yl)-3-(1-ethyl-4-methyl-1H-benzo[d][1,2,3]triazol-5-yl)propanoic acid], the Ki was found to be 0.0059 ± 0.0007 µM.
`COc1ccc(C)c(C(CC(=O)O)c2ccc3ccc(OCC(=O)NC4CCCCC4)cc3c2)c1` (centres unmarked) [3m, 3-(7-(2-(cyclohexylamino)-2-oxoethoxy)naphthalen-2-yl)-3-(5-methoxy-2-methylphenyl)propanoic acid]: the Ki worked out at 0.15 ± 0.014 µM.
As to `O=C(O)CC(c1ccc2c(c1)OCO2)c1ccc2ccc(OCC(=O)N[C@H]3CC[C@H](C(F)(F)F)CC3)cc2c1` (stereo partly drawn) [6i, 3-(benzo[d][1,3]dioxol-5-yl)-3-(7-(2-oxo-2-((trans-4-(trifluoromethyl)cyclohexyl)amino)ethoxy)naphthalen-2-yl)propanoic acid], the Ki was found to be 0.397 ± 0.041 µM.
`COc1ccc(C(CC(=O)O)c2ccc3ccc(OCC(=O)NC4CCCCCC4)cc3c2)cc1C` (centres unmarked) [2j, 3-(7-(2-(Cycloheptylamino)-2-oxoethoxy)naphthalen-2-yl)-3-(4-methoxy-3-methylphenyl)propanoic acid]: the Ki was 0.61 ± 0.06 µM.
Turning to `O=C(O)CC(c1ccc2c(c1)OCO2)c1cnc2ccc(OCC(=O)NC3CCCCCC3)cc2c1` (centres unmarked) [9c, 3-(benzo[d][1,3]dioxol-5-yl)-3-(6-(2-(cycloheptylamino)-2-oxoethoxy)quinolin-3-yl)propanoic acid], the inhibition constant (Ki) amounted to 0.064 µM.
`O=C(O)CC(c1ccc2c(c1)OCO2)c1ccc2ccc(OCC(=O)NC3CCCC3)cc2c1` (centres unmarked) [6d, 3-(benzo[d][1,3]dioxol-5-yl)-3-(7-(2-(cyclopentylamino)-2-oxoethoxy)naphthalen-2-yl)propanoic acid]: the Ki worked out at 0.062 ± 0.005 µM.
For `Cc1cc2c(cc1C(CC(=O)O)c1ccc3ccc(OCC(=O)NC4CCCCC4)cc3c1)OCO2` (centres unmarked) [3g, 3-(7-(2-(cyclohexylamino)-2-oxoethoxy)naphthalen-2-yl)-3-(6-methylbenzo[d][1,3]dioxol-5-yl)propanoic acid], the Ki was determined as 0.018 ± 0.006 µM.
With `COc1ccc(C(CC(=O)O)c2ccc3ccc(OCC(=O)NC4C=CCCC4)cc3c2)c(C)c1` (centres unmarked) [4k, 3-(7-(2-(cyclohex-2-en-1-ylamino)-2-oxoethoxy)naphthalen-2-yl)-3-(4-methoxy-2-methylphenyl)propanoic acid], the Ki was 0.017 ± 0.004 µM.
For `CC(Oc1ccc2ccc(C(CC(=O)O)c3ccc4c(c3)OCO4)cc2c1)C(=O)NC1CCCCCC1` (centres unmarked) [7a, 3-(Benzo[d][1,3]dioxol-5-yl)-3-(7-((1-(cycloheptylamino)-1-oxopropan-2-yl)oxy)naphthalen-2-yl)propanoic acid], the Ki came to 0.153 ± 0.012 µM.
Then `O=C(O)CC(c1ccc2ccc(OCC(=O)N[C@H]3C[C@@H]4CC[C@H]3C4)cc2c1)c1cc2c(cc1Cl)OCO2` (stereo partly drawn) [5b, 3-(7-(2-(((1S,2S,4R)-bicyclo[2.2.1]heptan-2-yl)amino)-2-oxoethoxy)naphthalen-2-yl)-3-(6-chlorobenzo[d][1,3]dioxol-5-yl)propanoic acid], with 0.004 µM.
As for `O=C(O)CC(c1cccc(Cl)c1)c1ccc2ccc(OCC(=O)NC3C=CCCC3)cc2c1` (centres unmarked) [4j, 3-(3-chlorophenyl)-3-(7-(2-(cyclohex-2-en-1-ylamino)-2-oxoethoxy)naphthalen-2-yl)propanoic acid], the inhibitory constant (Ki) was 0.206 ± 0.015 µM.
For `CCOc1ccc(C(CC(=O)O)c2ccc3ccc(OCC(=O)NC4CCCCCC4)cc3c2)cc1` (centres unmarked) [2e, 3-(7-(2-(Cycloheptylamino)-2-oxoethoxy)naphthalen-2-yl)-3-(4-ethoxyphenyl)propanoic acid], the inhibition constant (Ki) amounted to 0.041 ± 0.005 µM.
Take `Cc1ccc(Cl)cc1C(CC(=O)O)c1ccc2ccc(OCC(=O)NC3CCCCC3)cc2c1` (centres unmarked) [3p, 3-(5-Chloro-2-methylphenyl)-3-(7-(2-(cyclohexylamino)-2-oxoethoxy)naphthalen-2-yl)propanoic acid]: the inhibition constant (Ki) is 0.234 ± 0.04 µM.
As for `O=C(O)CC(c1ccc2ccc(OCC(=O)NC3C=CCCC3)cc2c1)c1ccc2occc2c1` (centres unmarked) [4g, 3-(Benzofuran-5-yl)-3-(7-(2-(cyclohex-2-en-1-ylamino)-2-oxoethoxy)naphthalen-2-yl)propanoic acid], the Ki amounted to 0.021 ± 0.002 µM.
Regarding `O=C(O)CC(c1ccc2c(c1)OCO2)c1ccc2ccc(OCC(=O)N[C@H]3CC[C@@H](C(F)(F)F)CC3)cc2c1` (stereo partly drawn) [6j, 3-(benzo[d][1,3]dioxol-5-yl)-3-(7-(2-oxo-2-((cis-4-(trifluoromethyl)cyclohexyl)amino)ethoxy)naphthalen-2-yl)propanoic acid], the inhibitory constant (Ki) amounted to 0.045 ± 0.001 µM.
For `O=C(O)CC(c1ccc2c(c1)OC(F)(F)O2)c1ccc2ccc(OCC(=O)NC3CCCCC3)cc2c1` (centres unmarked) [3k, 3-(7-(2-(cyclohexylamino)-2-oxoethoxy)naphthalen-2-yl)-3-(2,2-difluorobenzo[d][1,3]dioxol-5-yl)propanoic acid], the inhibitory constant (Ki) worked out at 0.052 ± 0.003 µM.
